From patent US8530430B2, “TTK peptides and vaccines including the same” (Oncotherapy Science, Inc., priority 2009, dated 2013)

Experiments:
peptide-pulsed T2 cells [1] = assay: IFN-gamma ELISPOT assay on CTLs induced with TTK peptides; assay type: cell-based, human; conditions: wells of CTLs stimulated with the peptide, against peptide-pulsed target cells compared to control wells
Text: Monocyte-derived dendritic cells (DCs) were used as antigen-presenting cells (APCs) to induce cytotoxic T lymphocyte (CTL) responses against peptides presented on human leukocyte antigen (HLA). DCs were generated in vitro as described elsewhere (Nakahara S et al., Cancer Res 2003 Jul. 15, 63(14): 4112-8). Specifically, peripheral blood mononuclear cells (PBMCs) isolated from a normal volunteer (HLA-A*0201 positive) by Ficoll-Plaque (Pharmacia) solution were separated by adherence to a plastic tissue culture dish (Becton Dickinson) so as to enrich them as the monocyte fraction. The monocyte-enriched population was cultured in the presence of 1,000 U/ml of granulocyte-macrophage colony-stimulating factor (GM-CSF) (R&D System) and 1,000 U/ml of interleukin (IL)-4 (R&D System) in AIM-V Medium (Invitrogen) containing 2% heat-inactivated autologous serum (AS). After 7 days of culture, the cytokine-induced DCs were pulsed with 20 micro-g/ml of each of the synthesized peptides in the presence of 3 micro-g/ml of beta 2-microglobulin for 3 hrs at 37 degrees C. in AIM-V Medium. The generated cells appeared to express DC-associated molecules, such as CD80, CD83, CD86 and HLA class II, on their cell surfaces (data not shown). These peptide-pulsed DCs were then inactivated by X-irradiation (20 Gy) and mixed at a 1:20 ratio with autologous CD8+ T cells, obtained by positive selection with CD8 Positive Isolation Kit (Dynal). These cultures were set up in 48-well plates (Corning); each well contained 1.5×10^4 peptide-pulsed DCs, 3×10^5 CD8+ T cells and 10 ng/ml of IL-7 (R&D System) in 0.5 ml of AIM-V/2% AS medium. Three days later, these cultures were supplemented with IL-2 (CHIRON) to a final concentration of 20 IU/ml. On days 7 and 14, the T cells were further stimulated with the autologous peptide-pulsed DCs. The DCs were prepared each time by the same way described above. CTL was tested against peptide-pulsed T2 cells after the 3rd round of peptide stimulation on day 21 (Tanaka H et al., Br J Cancer 2001 Jan. 5, 84(1): 94-9; Umano Y et al., Br J Cancer 2001 Apr. 20, 84(8): 1052-7; Uchida N et al., Clin Cancer Res 2004 Dec. 15, 10(24): 8577-86; Suda T et al., Cancer Sci 2006 May, 97(5): 411-9; Watanabe T et al., Cancer Sci 2005 August, 96(8): 498-506).
(§1) Specifically, peptide-pulsed T2 (1×10^4/well) was prepared as stimulator cells. Cultured cells in 48 wells were used as responder cells. IFN-gamma ELISPOT assay and IFN-gamma ELISA assay were performed under manufacture procedure.

peptide-pulsed T2 cells [2] = assay: IFN-gamma ELISA assay of established CTL lines and CTL clone; assay type: cell-based, human; conditions: for IFN-gamma production of CTL lines: CTL line established with the peptide, target cells pulsed with corresponding peptide vs without peptide pulse
Method: CTLs were expanded in culture using the method similar to the one described by Riddell et al. (Walter E A et al., N Engl J Med 1995 Oct. 19, 333(16): 1038-44; Riddell S R et al., Nat Med 1996 February, 2(2): 216-23). A total of 5×10^4 CTLs were resuspended in 25 ml of AIM-V/5% AS medium with 2 kinds of human B-lymphoblastoid cell lines, inactivated by Mitomycin C, in the presence of 40 ng/ml of anti-CD3 monoclonal antibody (Pharmingen). One day after initiating the cultures, 120 IU/ml of IL-2 were added to the cultures. The cultures were fed with fresh AIM-V/5% AS medium containing 30 IU/ml of IL-2 on days 5, 8 and 11 (Tanaka H et al., Br J Cancer 2001 Jan. 5, 84(1): 94-9; Umano Y et al., Br J Cancer 2001 Apr. 20, 84(8): 1052-7; Uchida N et al., Clin Cancer Res 2004 Dec. 15, 10(24): 8577-86; Suda T et al., Cancer Sci 2006 May, 97(5): 411-9; Watanabe T et al., Cancer Sci 2005 August, 96(8): 498-506).
The dilutions were made to have 0.3, 1, and 3 CTLs/well in 96 round-bottomed micro titer plate (Nalge Nunc International). CTLs were cultured with 1×10^4 cells/well of 2 kinds of human B-lymphoblastoid cell lines, 30 ng/ml of anti-CD3 antibody, and 125 U/ml of IL-2 in a total of 150 micro-l/well of AIM-V Medium containing 5% AS. 50 micro-1/well of IL-2 were added to the medium 10 days later so to reach a final concentration of 125 U/ml IL-2. CTL activity was tested on the 14th day, and CTL clone was expanded using the same method as described above (Uchida N et al., Clin Cancer Res 2004 Dec. 15, 10(24): 8577-86; Suda T et al., Cancer Sci 2006 May, 97(5): 411-9; Watanabe T et al., Cancer Sci 2005 August, 96(8): 498-506).
as §1

[3] = system: COS7 transfected with both the full length TTK gene and the HLA-A*0201 molecule; conditions: results of WO2008/102557 duplicated as FIG. 4; cited from earlier work
[4] = system: COS7 cells transfected with both the full length of TTK and HLA-A*0201 gene; assay: Specific CTL activity against target cells expressing TTK and HLA-A*0201; assay type: cell-based, African green monkey
Text: (§2) The cDNA encoding an open reading frame of target genes or HLA-A*0201 was amplified by PCR. The PCR-amplified products were cloned into a vector. The plasmids were transfected into COS7, which is the target genes and HLA-A*0201-negative cell line, using lipofectamine 2000 (Invitrogen) according to the manufacturer's recommended procedures. After 2 days from transfection, the transfected cells were harvested with versene (Invitrogen) and used as the target cells (5×10^4 cells/well) for CTL activity assay.
(§3) The established CTL lines and clones raised against each peptide were examined for the ability to recognize target cells that express TTK and HLA-A*0201 molecule. […] COS7 cells transfected with either full length of TTK genes or HLA-A*0201 were prepared as controls. […] And then this peptide-HLA complex was recognized by the CTLs.

[5] = system: COS7 cells transfected with either full length of TTK genes or HLA-A*0201; assay: Specific CTL activity against control COS7 transfectants; assay type: cell-based, African green monkey; conditions: CTL line and clone; COS7 expressing either TTK or HLA-A*0201 only
Text: as §2, §3

H1650 cells = assay: Specific CTL activity against HLA-A2 positive, TTK positive tumor cell line; assay type: cell-based, human; conditions: FIG. 3c
Text: (§4) T2 (HLA-A2), human B-lymphoblastoid cell line and COST, African green monkey kidney cell line, were purchased from ATCC. HLA-A2 positive and TTK positive tumor cell line, H1650, was purchased from ATCC. HLA-A2 negative and TTK positive cell lines, PC-3 and TE-1, were purchased from JCRB Cell bank and RIKEN Cell Bank, respectively.
as §3

PC3 cells = assay: Specific CTL activity against HLA-A2 negative, TTK positive control tumor cell line PC-3; assay type: cell-based, human
Text: as §4, §3

TE1 cells = assay: Specific CTL activity against HLA-A2 negative, TTK positive control tumor cell line TE-1; assay type: cell-based, human
Text: as §4, §3

Substance | IFN-gamma production of peptide-induced CTLs (peptide specific CTL activity) (peptide-pulsed T2 cells [1]) | IFN-gamma production of CTL lines (peptide-pulsed T2 cells [2]) | Specific CTL activity of CTL clones against COS7 transfected with both TTK and HLA-A*0201 [3] | also measured
TTK-A02-9-142: 9-mer HLA-A*0201 binding candidate peptide derived from TTK, SEQ ID NO: 15 (FAFVHISFA) | potent IFN-gamm production | potent IFN-gamma production | – | –
TTK-A02-9-146: 9-mer HLA-A*0201 binding candidate peptide derived from TTK, SEQ ID NO: 19 (HISFAQFEL) | potent IFN-gamm production | – | – | –
TTK-A02-9-462: 9-mer HLA-A*0201 binding candidate peptide derived from TTK, SEQ ID NO: 1 (YMSCFRTPV) | potent IFN-gamm production | potent IFN-gamma production | specific CTL activity | –
TTK-A02-9-547: 9-mer peptide derived from TTK, SEQ ID NO: 5, disclosed in Applicants' WO2008/102557 (KQIYAIKYV) | – | – | specific CTL activity | –
TTK-A02-9-564: 9-mer HLA-A*0201 binding candidate peptide derived from TTK, SEQ ID NO: 20 (TLDSYRNEI) | potent IFN-gamm production | – | – | –
TTK-A02-9-593: nonapeptide derived from TTK, HLA-A2 restricted epitope peptide, SEQ ID NO: 3 (ITDQYIYMV) | potent IFN-gamm production | potent IFN-gamma production | – | IFN-gamma production of CTL clone (peptide-pulsed T2 cells [2]; CTL clone established by limiting dilution from the CTL line, target cells pulsed with peptide): Potent IFN-gamma productions; CTL activity of CTL clone against COS7 cells expressing both TTK and HLA-A*0201 ([4]; CTL clone stimulated with the peptide as effector cells (FIG. 3b)): potent CTL activity; CTL activity of CTL line against COS7 cells expressing both TTK and HLA-A*0201 ([4]; CTL line stimulated with the peptide as effector cells (FIG. 3a)): potent CTL activity; Increase in the IFN-gamma production compared to the peptides of WO2008/102557 ([4]; compared to TTK-A2-9-462, TTK-A02-9-547, TTK-A2-9-719 and TTK-A2-10-462 (FIG. 3 vs FIG. 4)): one or two orders of magnitude; Specific CTL activity against the controls [5]: no significant specific CTL activity was detected; Specific CTL activity of CTL clone against tumor cell line endogenously expressing both TTK and HLA-A*0201 (H1650 cells): specific CTL activity; Specific CTL activity of CTL clone against control tumor cells (PC3 cells): no significant specific CTL activity was detected; Specific CTL activity of CTL clone against control tumor cells (TE1 cells): no significant specific CTL activity was detected
TTK-A02-9-630: 9-mer HLA-A*0201 binding candidate peptide derived from TTK, SEQ ID NO: 2 (NMLEAVHTI) | potent IFN-gamm production | potent IFN-gamma production | – | –
TTK-A02-9-719: 9-mer HLA-A*0201 binding candidate peptide derived from TTK, SEQ ID NO: 6 (SLGCILYYM) | potent IFN-gamm production | potent IFN-gamma production | specific CTL activity | –
TTK-A02-10-462: 10-mer HLA-A*0201 binding candidate peptide derived from TTK, SEQ ID NO: 22 (YMSCFRTPVV) | potent IFN-gamm production | potent IFN-gamma production | specific CTL activity | –
TTK-A02-10-542: 10-mer HLA-A*0201 binding candidate peptide derived from TTK, SEQ ID NO: 34 (VLNEKKQIYA) | potent IFN-gamm production | – | – | –
TTK-A02-10-661: 10-mer HLA-A*0201 binding candidate peptide derived from TTK, SEQ ID NO: 35 (KLIDFGIANQ) | potent IFN-gamm production | – | – | –
